In ChEMBL document CHEMBL1671801, “Melampomagnolide B: a new antileukemic sesquiterpene” (Bioorg Med Chem, 2011):
Active and inactive are the calls of the source.

Experiments:
AML [1] = assay: Inhibition of NF-kappaB activity in human AML cells assessed as phosphorylation of NF-kappaB p65 subunit at Ser-536 at 15 uM by immunoblotting; format: cell-based
AML [2] = assay: Cytotoxicity against human AML cells at 20 to 30 uM after 24 hrs using Annexin-V and 7-AAD staining by flow cytometry; format: functional, cell-based
AML [3] = assay: Binding affinity to NF-kappaB p65 activity in human AML cells after 4 hrs streptavidin beads pull-down assay; format: cell-based
[4] = target: T1, Inhibitor of nuclear factor kappa-B kinase subunit beta (Homo sapiens) (UniProt O14920); assay: Binding affinity to IKK-beta activity in human AML cells after 4 hrs streptavidin beads pull-down assay; format: cell-based
T1 sequence (whole entry): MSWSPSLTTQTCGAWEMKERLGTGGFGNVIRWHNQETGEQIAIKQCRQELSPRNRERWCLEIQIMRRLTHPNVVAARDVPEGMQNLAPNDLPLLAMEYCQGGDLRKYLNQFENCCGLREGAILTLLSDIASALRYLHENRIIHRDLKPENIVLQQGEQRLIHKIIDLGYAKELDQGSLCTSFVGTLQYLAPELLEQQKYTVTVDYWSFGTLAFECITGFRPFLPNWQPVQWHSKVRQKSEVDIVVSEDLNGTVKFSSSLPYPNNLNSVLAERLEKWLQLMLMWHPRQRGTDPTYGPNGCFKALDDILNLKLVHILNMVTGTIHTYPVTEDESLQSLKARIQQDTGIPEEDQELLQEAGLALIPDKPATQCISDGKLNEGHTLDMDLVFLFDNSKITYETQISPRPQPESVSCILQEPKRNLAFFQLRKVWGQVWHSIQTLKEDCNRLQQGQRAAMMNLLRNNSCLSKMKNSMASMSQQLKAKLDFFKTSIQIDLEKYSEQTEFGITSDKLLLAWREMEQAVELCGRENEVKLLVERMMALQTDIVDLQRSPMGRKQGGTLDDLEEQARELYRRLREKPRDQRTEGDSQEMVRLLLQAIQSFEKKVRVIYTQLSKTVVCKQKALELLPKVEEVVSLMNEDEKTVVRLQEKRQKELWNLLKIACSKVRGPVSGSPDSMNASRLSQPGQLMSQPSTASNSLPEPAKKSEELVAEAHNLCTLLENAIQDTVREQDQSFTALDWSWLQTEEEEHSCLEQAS

AML [5] = assay: Inhibition of NF-kappaB activity in human AML cells assessed as phosphorylation of NF-kappaB p65 subunit at Ser-536 at 7.5 uM by immunoblotting; format: cell-based
AML [6] = assay: Cytotoxicity against human AML cells at 7.5 uM after 24 hrs using Annexin-V and 7-AAD staining by flow cytometry; format: functional, cell-based

Measured: Activity

C=C1C(=O)O[C@@H]2[C@H]3O[C@]3(C)CC/C=C(\COC(=O)CCCCCCCCCCCNC(=O)CCCC[C@@H]3SC[C@@H]4NC(=O)N[C@@H]43)CC[C@@H]12
active: AML [1] | AML [2] | AML [3] | [4]

C=C1C(=O)O[C@@H]2[C@H]3O[C@]3(C)CC/C=C(\CO)CC[C@@H]12
active: AML [5] | AML [6]
